Tested on: HIF-1α / hydroxylated HIF-1α (Hdy-HIF-1α)
Assay: Western blot of HIF-1α and Hdy-HIF-1α levels in HeLa cells
Format: cell-based, Human
Conditions: HeLa, 1 μM, 10 h
Experimental: For single time point treatment experiments, cells were transferred in 6-well plates with 5×10^5 cells per well in 2 ml media in order to achieve 80% confluence the following day. Stock concentrations of compounds were prepared by solubilizing the powder in 100% v/v DMSO to the final desired stock concentration.
On the day of treatment, all compound samples were prepared as 100-fold concentrated compound solution using DMEM just before treatment. The experiment samples (20 μL) were added to the 6 well plate containing 2 ml of media. The final DMSO concentration was 0.1% v/v. Cells were incubated at 37° C. and 5% CO2 for the desired time before harvesting.
For time dependent treatment, cells were transferred in 6-well plates with 3×10^5 cells per well in 2 ml media. Samples were prepared as detailed above or the single time point experiments. Treatment was conducted at given time points prior to harvest.
Cells were lysed in lysis buffer (20 mM Tris pH 8, 150 mM NaCl, 1% Triton x100) and a protease inhibitor cocktail (Roche) per 10 ml buffer. For protein extracts, the dishes were placed on ice. The media was aspirated and the tissue layer washed twice with ice-cold phosphate buffer saline (PBS). Lysis buffer (120 μl) was added and the cells detached from the surface with a cell scraper. After removal of the insoluble fraction by centrifugation, the protein concentration of the supernatant was determined by Pierce™ Coomassie (Bradford) Protein Assay Kit. Protein extracts were fractionated by SDS-PAGE on 4-12% Tris-Acetate NuPage® Novex® (Life Technologies) polyacrylamide gels and transferred to a nitrocellulose membrane using wet transfer. The membrane was then blocked with 5% w/v Bovine serum albumin (BSA) in Tris-buffered saline (TBS) with 0.1% w/v Tween-20. For detecting proteins the following primary antibodies in the given concentrations were used: anti-β-Actin (Cell Signaling Technology, 4970S, 13E5) 1:2000, anti-VHL (Cell Signaling Technology, #68547) 1:1000, anti-Hif-1α (BD Biosciences, 610959, clone 54) 1:1000, anti-hydroxy-HIF-1α (Hyp564) (Cell Signaling Techonology; #3434) 1:1000, anti-PHD2 (Bethyl Laboratories; A300-322A) 1:1000, anti-PHD3 (Bethyl Laboratories; A300-327A) 1:1000, anti-CRBN (Proteintech; 11435-1-AP) 1:1000.
Following incubation with a horseradish peroxidase-conjugated secondary antibody (Cell Signaling Technology), the signal was developed using enhanced chemiluminescence (ECL) Western Blotting Detection Kit (Amersham) on Amersham Hyperfilm ECL film (Amersham).
Band quantification was performed using ImageJ software and reported as relative amount as ratio of the each protein band relative to the lane's loading control. The values obtained were then normalized to 0.1% DMSO vehicle control.

Cc1ncsc1-c1ccc(CNC(=O)[C@@H]2C[C@@H](O)CN2C(=O)[C@@H](NC(=O)COCCOCCOCCOCCOCCOCC(=O)N[C@H](C(=O)N2C[C@H](O)C[C@H]2C(=O)NCc2ccc(-c3scnc3C)cc2)C(C)(C)C)C(C)(C)C)cc1 [CM11, N^1,N^20-bis((S)-1-((2S,4R)-4-hydroxy-2-((4-(4-methylthiazol-5-yl)benzyl)carbamoyl)pyrrolidin-1-yl)-3,3-dimethyl-1-oxobutan-2-yl)-3,6,9,12,15,18-hexaoxaicosanediamide]
HIF-1α level: slight increase | protein levels of Hdy-HIF-1α: detectable albeit low increase
